Reference: patent publication US20250290099A1, “MATERIALS AND METHODS FOR TARGETED GENETIC MANIPULATIONS IN CELLS” (The Regents of the University of California, priority 2021, published 2025)

Assays:
CTLA4 protein = assay: CTLA4 gRNA screen: protein disruption by CTLA4 flow cytometric analysis; type: cell-based, human; settings: activated CD4+ T cells, flow cytometry
Protocol: Flow Cytometry. All flow cytometry was performed on an Attune NxT flow cytometer with a 96-well autosampler (Thermo Fisher Scientific). Unless otherwise indicated, cells were collected 3-5 days post-electroporation, resuspended in FACS buffer (1%-2% BSA in PBS) and stained with Ghost Dye red 780 (Tonbo) and the indicated cell-surface and intracellular markers (see Table 2 for antibodies). For intracellular staining, cells were stained for surface markers and then prepared for intracellular staining using True-Nuclear Transcription Factor staining kits (Biolegend). […] Analysis was done using FlowJo v10 software. All gating strategies included exclusion of subcellular debris, singlet gating, and live:dead stain. Final graphs were produced with Prism (GraphPad), and figures were compiled with Illustrator (Adobe).
(§1) As a further example, we examined an ORF insertion within the CTLA4 gene (FIG. 8E). CTLA4 deficiency is caused most frequently by a haploinsufficiency with a disease-causing mutation on only 1 of 2 alleles. Exon-targeting strategies generate indels which could disrupt the normal allele and worsen disease. To avoid this possibility, we screened a panel of gRNA in intron 1, set forth in Table 3, to identify targets which cut efficiently without disrupting protein expression (FIG. 7B).

CTLA4 gene = assay: CTLA4 gRNA screen: cutting efficiency by TIDE indel analysis; type: cell-based, human; settings: TIDE indel analysis at target locus
Text: as §1

primary human T cells [1] = type: cell-based; settings: ssCTS tNGFR template +/- MT and MTX
Text: (a) Knock-in efficiencies for constructs targeting a tNGFR marker to 22 different target genome loci. (b-d) Comparison of large ssDNA and dsDNA HDRTs with CTS sites for knock-in of a pooled library of 2.6-3.6 kb polycistronic constructs targeted to the TRAC locus. Shown for each HDRT variation is (b) relative % knock-in in comparison to maximum for dsDNA+CTS templates, (c) relative knock-in cell count yields in comparison to maximum for dsDNA+CTS templates, and (d) representation of each library member in knock-in cells post-electroporation in comparison to construct representation the input plasmid pool. (e-g) Comparison of knock-in cell yields using ssDNA (red) and dsDNA HDRTs (blue) with CTS sites across a variety of primary human hematopoietic cell types. Note, different cell type comparisons are performed with different blood donors. All comparisons were performed using a knock-in construct generating an CLTA-mCherry fusion at the CLTA locus. Shown for each cell type using HDRT concentrations from 5-160 nM are (e) knock-in cell count yields, (f) maximum fold-change in knock-in count yields (relative to dsCTS templates), and (g) maximum % knock-in. […]
(a) Evaluation of relative increase in % knock-in using an ssDNA CD5-HA knock-in construct over varied concentrations of 5 different small molecule inhibitors assessed by flow cytometry. […]

primary human T cells [2] = assay: CD5-HA knock-in with short ssDNA HDRT, knock-in efficiency by flow cytometry; type: cell-based; settings: short ssDNA CD5-HA knock-in construct, optimal concentrations, inhibitors for 24 hours after electroporation
Text: (a) Evaluation of relative increase in % knock-in using an ssDNA CD5-HA knock-in construct over varied concentrations of 5 different small molecule inhibitors assessed by flow cytometry. […] (b) Comparison of relative % knock-in (top) and live cell counts (bottom) with small molecule inhibitor combinations. […] Panel a, b, and d were each performed with T cells from 2 independent healthy human blood donors. […] Error bars indicate standard deviation. CTS=Cas9 Target Site, HDRT=homology-directed-repair template, dsCTS=dsDNA+CTS HDRT, ssCTS=ssDNA+CTS HDRT, TSA=Trichostatin A, HDR Enhancer=IDT Alt-R HDR Enhancer, MT=M3814+TSA, MTX=M3814+TSA+XL413.
(§2) Trichostatin A (TSA) (Cayman Chemical), Nedisertib (M3814) (MedKoo Biosciences), XL413 hydrochloride (XL413) (Fisher Scientific), NU7441 (Fisher Scientific), and Alt-R HDR enhancer (IDT) were prepared and stored as aliquots per manufacturer guidelines. For experiments using small molecule inhibitors, cells were incubated with the indicated concentrations upon addition of fresh growth media following the 15 minute rescue step, and removed by media exchange after 24 hours.

primary human T cells [3] = assay: Live cell counts after electroporation with small molecule inhibitors; type: cell-based
Protocol: (d) Evaluation of live cell counts with MT and MTX inhibitor combinations using 44 different knock-in constructs targeting a tNGFR marker across 22 different target loci with 2 gRNA per gene (g1 and g2). Panel a, b, and d were each performed with T cells from 2 independent healthy human blood donors. Panel c was performed with T cells from 4-6 independent healthy human blood donors. Error bars indicate standard deviation. CTS=Cas9 Target Site, HDRT=homology-directed-repair template, dsCTS=dsDNA+CTS HDRT, ssCTS=ssDNA+CTS HDRT, TSA=Trichostatin A, HDR Enhancer=IDT Alt-R HDR Enhancer, MT=M3814+TSA, MTX=M3814+TSA+XL413.
as §2

IL2RA = assay: TIDE indel analysis, RNPs targeting exon 1 of IL2RA +/- M3814 and TSA; type: cell-based, human; settings: with addition of M3814 and TSA
Protocol: Media was refreshed after 24 hours in all samples, and cells were resuspended in growth media and IL-2. Six days after electroporations, genomic DNA was isolated from samples and amplicons were generated using PCR. Amplicons were sequenced and analyzed using TIDE (Tracking of Indels by Decomposition) to determine distinct changes in indel spectrums.

CD5 target locus = assay: Amplicon sequencing of the CD5 target locus, repair outcomes; type: cell-based, human; settings: small CD5-HA templates
Text: We further examined repair outcomes at the genetic level by amplicon sequencing of the CD5 target locus with different versions of the small CD5-HA templates and inhibitor cocktails. […] The ratio of perfect:imperfect HDR events was also similar across the different types of templates. Intriguingly, […] […] Inclusion of HDR templates was associated with preferential reduction in the larger deletions characteristic of MMEJ (while smaller indels characteristic of NHEJ were more refractory in the absence of DNA-PK inhibition), in agreement with recent reports.

Molecule	%CTLA4 protein loss above background (CTLA4 protein) [%]	%indel (CTLA4 gene) [%]	other results
G520: gRNA, CTLA4 intron 1, target sequence GATATGACAAACAGAAGACC (SEQ ID NO: 4) (listed as DNA, chemistry not given here)	0	72.5	
G519: gRNA, CTLA4 intron 1, target sequence ACATATTTCATGGTAGAGCC (SEQ ID NO: 73) (listed as DNA, chemistry not given here)	0	89.65	
CD7 g1: gRNA targeting CD7, TCAGCTGCACTCGCCCGGCT (SEQ ID NO: 17), with corresponding tNGFR ssCTS template (listed as DNA, chemistry not given here)			effect size of inhibitors: increase in knock-in efficiency (primary human T cells [1]): relatively little increase
G516: gRNA, CTLA4 intron 1, target sequence TGCATCTGAAACCCACACGT (SEQ ID NO: 70) (listed as DNA, chemistry not given here)	0	61.95	
O=c1cc(N2CCOCC2)oc2c(-c3cccc4c3sc3ccccc34)cccc12 [NU7441, 8-(dibenzo[b,d]thiophen-4-yl)-2-morpholino-4H-chromen-4-one]			increase in knock-in efficiency (primary human T cells [2]): ~43%
PI3KCD g2: gRNA targeting PI3KCD, TAACAACGCAGGATGCCCCC (SEQ ID NO: 38), with corresponding tNGFR ssCTS template (listed as DNA, chemistry not given here)			effect size of inhibitors: increase in knock-in efficiency (primary human T cells [1]): up to 7 fold
G515: gRNA, CTLA4 intron 1, target sequence TTGTATGCCAAACAGACTGG (SEQ ID NO: 69) (listed as DNA, chemistry not given here)	0	79.25	
Cl.O=c1[nH]c([C@@H]2CCCN2)nc2c1oc1ccc(Cl)cc12 [XL413, (S)-8-chloro-2-(pyrrolidin-2-yl)benzofuro[3,2-d]pyrimidin-4(3H)-one hydrochloride]			increase in knock-in efficiency (primary human T cells [2]): ~46%; reduction in cell counts (primary human T cells [3]; Day 11): ~20%; reduction in cell counts (primary human T cells [3]; day 4 post-electroporation): ~50%
G377: crRNA/gRNA targeting IL2RA, TGAGCAGTCCCCACATCAGC (SEQ ID NO: 13) (listed as DNA, chemistry not given here)			cutting efficiency (IL2RA): not impacted
G512: gRNA, CTLA4 exon 1, target sequence CTCAGCTGAACCTGGCTACC (SEQ ID NO: 66) (listed as DNA, chemistry not given here)	1.3	12.15	
CC(/C=C/C(=O)NO)=C\[C@@H](C)C(=O)c1ccc(N(C)C)cc1 [TSA, [R-(E,E)]-7-[4-(dimethylamino)phenyl]-N-hydroxy-4,6-dimethyl-7-oxo-2,4-heptadienamide]			increase in knock-in efficiency (primary human T cells [2]): ~16%
G513: gRNA, CTLA4 exon 1, target sequence TGAACCTGGCTACCAGGACC (SEQ ID NO: 67) (listed as DNA, chemistry not given here)	10.2	23.7	
G509: gRNA, CTLA4 exon 1, target sequence CCTTGTGCCGCTGAAATCCA (SEQ ID NO: 63) (listed as DNA, chemistry not given here)	39.2	78.2	
G510: gRNA, CTLA4 exon 1, target sequence CCTTGGATTTCAGCGGCACA (SEQ ID NO: 64) (listed as DNA, chemistry not given here)	16.65	47.7	
G511: gRNA, CTLA4 exon 1, target sequence GCACAAGGCTCAGCTGAACC (SEQ ID NO: 65) (listed as DNA, chemistry not given here)	32.4	71.85	
G514: gRNA, CTLA4 exon 1, target sequence AGAAAAAACAGGAGAGTGCA (SEQ ID NO: 68) (listed as DNA, chemistry not given here)	47.45	94.35	
G517: gRNA, CTLA4 intron 1, target sequence CTCTGAAGAGCTGAAAACTG (SEQ ID NO: 71) (listed as DNA, chemistry not given here)	0	80.35	
COc1ccc([C@@H](O)c2cc(-c3ncnc4cc(N5CCOCC5)ccc34)c(F)cc2Cl)nn1 [M3814, (S)-(2-chloro-4-fluoro-5-(7-morpholinoquinazolin-4-yl)phenyl)(6-methoxypyridazin-3-yl)methanol]			increase in knock-in efficiency (primary human T cells [2]): ~49%; repair outcomes: frequency of indels (CD5 target locus): decreased frequency of indels
